Results: patent US20240189289A1, “INHIBITORS OF EPHB3 SIGNALING” (The Brigham and Women`s Hospital, Inc., priority 2021, published 2024)
Like-named read-outs stand apart in the source and are kept apart here.

Legend:
Format in all cases: biochemical
EphA2 = EphA2 (Homo sapiens, UniProt P29317); experiment: Eph receptor kinase activity assay (radiometric), EphA2; conditions: for remaining activity at 0.01 µM: 10 nM compound, read-out: EphA2 % act 10 nM; for remaining activity at 0.03 µM: 30 nM compound, read-out: EphA2 % act 30 nM; for remaining activity at 0.1 µM: 100 nM compound, read-out: EphA2 % act 100 nM; for remaining activity at 0.3 µM: 300 nM compound, read-out: EphA2 % act 300 nM; for IC50: Table 2, Example 12
EphA2, sequence (P29317 24-976): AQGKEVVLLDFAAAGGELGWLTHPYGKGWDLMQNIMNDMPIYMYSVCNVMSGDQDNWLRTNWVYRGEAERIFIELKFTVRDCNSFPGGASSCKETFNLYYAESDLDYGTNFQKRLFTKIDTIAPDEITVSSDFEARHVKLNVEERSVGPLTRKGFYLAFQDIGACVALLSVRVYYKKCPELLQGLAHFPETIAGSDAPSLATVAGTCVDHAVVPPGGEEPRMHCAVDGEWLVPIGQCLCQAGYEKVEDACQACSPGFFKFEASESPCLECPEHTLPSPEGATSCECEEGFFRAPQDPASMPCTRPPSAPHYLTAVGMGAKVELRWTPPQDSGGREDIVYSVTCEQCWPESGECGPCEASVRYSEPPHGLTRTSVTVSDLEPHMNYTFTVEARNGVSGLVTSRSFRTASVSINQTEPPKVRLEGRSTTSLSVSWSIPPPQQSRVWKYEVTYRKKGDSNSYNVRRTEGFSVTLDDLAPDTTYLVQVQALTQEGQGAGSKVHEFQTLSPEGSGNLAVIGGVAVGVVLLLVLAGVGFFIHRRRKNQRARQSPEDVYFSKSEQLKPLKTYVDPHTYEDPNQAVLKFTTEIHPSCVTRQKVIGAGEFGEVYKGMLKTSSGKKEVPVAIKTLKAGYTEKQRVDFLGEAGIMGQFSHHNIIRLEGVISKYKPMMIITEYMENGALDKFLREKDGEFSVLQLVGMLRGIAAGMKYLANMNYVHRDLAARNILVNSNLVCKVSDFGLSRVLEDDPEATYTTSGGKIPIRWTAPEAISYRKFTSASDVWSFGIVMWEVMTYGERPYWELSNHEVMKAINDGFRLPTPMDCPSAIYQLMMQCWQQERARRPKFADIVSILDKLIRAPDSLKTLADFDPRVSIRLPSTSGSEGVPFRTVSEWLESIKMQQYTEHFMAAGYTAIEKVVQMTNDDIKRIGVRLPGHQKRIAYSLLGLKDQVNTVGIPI

EphB4 = molecular target: T1, EphB4 (Homo sapiens, UniProt P54760); experiment: Eph receptor kinase activity assay (radiometric), EphB4; conditions: for remaining activity at 0.01 µM: 10 nM compound, read-out: EphB4 % act 10 nM; for remaining activity at 0.03 µM: 30 nM compound, read-out: EphB4 % act 30 nM; for remaining activity at 0.1 µM: 100 nM compound, read-out: EphB4 % act 100 nM; for remaining activity at 0.3 µM: 300 nM compound, read-out: EphB4 % act 300 nM; for IC50: Table 2, Example 12
T1 sequence (P54760 16-987): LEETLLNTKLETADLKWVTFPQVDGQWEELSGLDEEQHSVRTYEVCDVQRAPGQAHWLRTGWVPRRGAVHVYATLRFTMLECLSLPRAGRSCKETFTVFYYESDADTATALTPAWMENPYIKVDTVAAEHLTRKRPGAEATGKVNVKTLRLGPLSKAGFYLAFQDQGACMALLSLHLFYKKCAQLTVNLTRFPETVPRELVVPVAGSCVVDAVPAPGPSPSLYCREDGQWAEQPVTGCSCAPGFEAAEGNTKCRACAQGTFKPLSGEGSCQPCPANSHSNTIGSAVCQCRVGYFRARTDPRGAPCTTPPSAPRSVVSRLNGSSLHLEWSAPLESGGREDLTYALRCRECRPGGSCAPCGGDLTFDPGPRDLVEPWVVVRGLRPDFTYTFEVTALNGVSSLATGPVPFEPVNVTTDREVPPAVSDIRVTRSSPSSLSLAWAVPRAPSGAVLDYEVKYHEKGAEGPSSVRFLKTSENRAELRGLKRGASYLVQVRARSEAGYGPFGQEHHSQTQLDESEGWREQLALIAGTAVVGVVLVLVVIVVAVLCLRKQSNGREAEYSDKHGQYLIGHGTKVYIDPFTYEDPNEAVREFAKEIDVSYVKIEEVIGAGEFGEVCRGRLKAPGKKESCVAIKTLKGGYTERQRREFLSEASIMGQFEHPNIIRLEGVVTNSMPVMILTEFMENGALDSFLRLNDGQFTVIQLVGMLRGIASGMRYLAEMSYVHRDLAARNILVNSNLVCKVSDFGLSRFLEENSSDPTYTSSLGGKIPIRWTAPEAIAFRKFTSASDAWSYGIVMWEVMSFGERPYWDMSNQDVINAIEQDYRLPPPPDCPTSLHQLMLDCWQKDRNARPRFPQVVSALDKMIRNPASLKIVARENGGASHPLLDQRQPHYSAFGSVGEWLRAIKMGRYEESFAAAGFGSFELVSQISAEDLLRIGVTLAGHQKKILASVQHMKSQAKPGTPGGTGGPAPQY

EphB3 = molecular target: T2, EphB3 (Homo sapiens, UniProt P54753); experiment: EphB3 radiometric kinase activity assay (33P ATP filter binding); conditions: for remaining activity at 0.01 µM: 10 nM compound, read-out: EphB3 % act 10 nM; for remaining activity at 0.03 µM: 30 nM compound, read-out: EphB3 % act 30 nM; for remaining activity at 0.1 µM: 100 nM compound, read-out: EphB3 % act 100 nM; for remaining activity at 0.3 µM: 300 nM compound, read-out: EphB3 % act 300 nM
T2 sequence (P54753 34-998): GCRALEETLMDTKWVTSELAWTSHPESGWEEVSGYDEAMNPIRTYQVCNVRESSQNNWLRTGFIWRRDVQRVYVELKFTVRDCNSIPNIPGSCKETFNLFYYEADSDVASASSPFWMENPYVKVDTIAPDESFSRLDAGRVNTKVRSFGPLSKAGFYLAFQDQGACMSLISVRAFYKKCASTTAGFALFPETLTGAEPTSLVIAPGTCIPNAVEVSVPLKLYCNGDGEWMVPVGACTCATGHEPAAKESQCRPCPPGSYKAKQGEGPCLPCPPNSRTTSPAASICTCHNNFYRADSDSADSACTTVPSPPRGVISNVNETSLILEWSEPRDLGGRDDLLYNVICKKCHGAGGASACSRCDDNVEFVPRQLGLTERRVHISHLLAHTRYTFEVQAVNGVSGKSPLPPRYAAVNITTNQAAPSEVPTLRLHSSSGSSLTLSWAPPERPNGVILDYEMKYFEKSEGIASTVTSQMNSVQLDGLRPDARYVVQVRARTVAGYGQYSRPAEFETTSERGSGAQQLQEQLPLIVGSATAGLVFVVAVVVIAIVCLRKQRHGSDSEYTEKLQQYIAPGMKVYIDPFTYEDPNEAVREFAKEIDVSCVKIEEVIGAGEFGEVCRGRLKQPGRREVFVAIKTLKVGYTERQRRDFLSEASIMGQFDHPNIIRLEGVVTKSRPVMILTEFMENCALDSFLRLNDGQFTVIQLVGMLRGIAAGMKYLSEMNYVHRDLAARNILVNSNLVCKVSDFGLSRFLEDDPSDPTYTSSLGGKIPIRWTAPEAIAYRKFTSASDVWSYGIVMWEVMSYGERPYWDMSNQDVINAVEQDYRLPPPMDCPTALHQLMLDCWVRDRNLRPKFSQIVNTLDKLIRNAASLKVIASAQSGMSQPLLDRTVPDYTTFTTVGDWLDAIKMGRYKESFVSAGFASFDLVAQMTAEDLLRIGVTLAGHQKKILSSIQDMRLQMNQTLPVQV
Method: EphB3 radiometric kinase activity assay. To study the EphB3 kinase activity, a radioactive filter binding assay using 33P ATP was performed as described at the […] International Centre for Kinase profiling. […] The mix was harvested onto P81 filter plates and counts were read on a Topcount NXT.

EphA4 = EphA4 (Homo sapiens, UniProt P54764); experiment: Eph receptor kinase activity assay (radiometric), EphA4; conditions: for remaining activity at 0.01 µM: 10 nM compound, read-out: EphA4 % act 10 nM; for remaining activity at 0.03 µM: 30 nM compound, read-out: EphA4 % act 30 nM; for remaining activity at 0.1 µM: 100 nM compound, read-out: EphA4 % act 100 nM; for remaining activity at 0.3 µM: 300 nM compound, read-out: EphA4 % act 300 nM; for IC50: Table 2, Example 12
EphA4, sequence (P54764 20-986): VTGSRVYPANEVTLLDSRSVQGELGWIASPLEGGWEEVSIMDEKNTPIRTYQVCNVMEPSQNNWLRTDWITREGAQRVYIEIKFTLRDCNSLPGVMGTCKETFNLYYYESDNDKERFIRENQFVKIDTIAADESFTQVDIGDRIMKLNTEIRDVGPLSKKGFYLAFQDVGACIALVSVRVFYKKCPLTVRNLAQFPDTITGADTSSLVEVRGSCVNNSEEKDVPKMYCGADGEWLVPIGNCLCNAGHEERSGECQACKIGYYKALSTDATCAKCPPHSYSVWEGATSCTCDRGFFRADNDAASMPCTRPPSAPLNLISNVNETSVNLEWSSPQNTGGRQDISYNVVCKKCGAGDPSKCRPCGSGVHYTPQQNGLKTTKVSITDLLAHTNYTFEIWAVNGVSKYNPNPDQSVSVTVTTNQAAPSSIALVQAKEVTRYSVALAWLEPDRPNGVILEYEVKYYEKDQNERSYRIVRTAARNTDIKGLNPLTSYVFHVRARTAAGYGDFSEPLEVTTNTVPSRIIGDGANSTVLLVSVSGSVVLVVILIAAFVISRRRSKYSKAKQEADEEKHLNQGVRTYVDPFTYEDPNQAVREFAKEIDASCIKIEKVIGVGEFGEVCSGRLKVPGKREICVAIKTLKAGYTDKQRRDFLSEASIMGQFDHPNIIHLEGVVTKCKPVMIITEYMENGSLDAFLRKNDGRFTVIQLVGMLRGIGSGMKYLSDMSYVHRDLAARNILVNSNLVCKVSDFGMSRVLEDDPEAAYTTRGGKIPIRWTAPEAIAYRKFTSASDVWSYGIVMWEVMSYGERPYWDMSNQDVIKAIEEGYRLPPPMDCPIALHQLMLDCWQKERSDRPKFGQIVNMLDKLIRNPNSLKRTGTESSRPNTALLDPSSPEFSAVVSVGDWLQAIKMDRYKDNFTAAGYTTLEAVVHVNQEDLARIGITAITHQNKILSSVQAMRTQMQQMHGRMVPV

[1] = Table 2, Example 12, read-out: EphB3 (nM) IC50
[2] = Example 14, read-out: IC50 (μM), EphB3 receptor kinase inhibitory activity

Row | SMILES | remaining activity at 0.01 µM (EphA2) | remaining activity at 0.03 µM (EphA2) | remaining activity at 0.1 µM (EphA2) | remaining activity at 0.01 µM (EphB4) | remaining activity at 0.03 µM (EphB4) | remaining activity at 0.1 µM (EphB4) | remaining activity at 0.01 µM (EphB3) | remaining activity at 0.03 µM (EphB3) | remaining activity at 0.1 µM (EphB3) | remaining activity at 0.01 µM (EphA4) | remaining activity at 0.03 µM (EphA4) | remaining activity at 0.1 µM (EphA4) | IC50 (EphB3; [2]) | other results
1 | Cc1ccc(-c2ccc3ncc(C(=O)Nc4ccccc4Cl)n3c2)cc1 [compound 104, N-(2-Chlorophenyl)-6-(4-methylphenyl)imidazo[1,2-a]pyridine-3-carboxamide] | 78.1% | 86% | 55.9% | 93.1% | 95.5% | 98.4% | 110% | 60.5% | 55.9% | 83.8% | 62.8% | 57.8% | – | –
2 | O=C(Nc1ccccc1Cl)c1cnc2ccc(-c3cccnc3)cn12 [compound 113, N-(2-Chlorophenyl)-6-(pyridin-3-yl)imidazo[1,2-a]pyridine-3-carboxamide] | 52% | – | 29% | 30% | – | 7% | 49% | – | 16% | 53% | – | 26% | – | remaining activity at 0.3 µM (EphA2): 17%; remaining activity at 0.3 µM (EphB4): 4%; remaining activity at 0.3 µM (EphB3): 11%; remaining activity at 0.3 µM (EphA4): 19%
3 | O=C(Nc1ccccc1Cl)c1cnc2ccc(-c3ccccc3O)cn12 [compound 116, N-(2-chlorophenyl)-6-(2-hydroxyphenyl)imidazo[1,2-a]pyridine-3-carboxamide] | 76.4% | 84% | 61.3% | 96.5% | 103% | 103% | 112% | 65.5% | 42.9% | 99.5% | 77% | 82.4% | – | IC50 (EphA2): 345 nM; IC50 (EphB4): 687 nM; IC50 (EphB3; [1]): 60 nM; IC50 (EphA4): 248 nM
4 | NCc1ccc(-c2ccc3ncc(C(=O)Nc4ccccc4Cl)n3c2)cc1 [compound 109, 6-(4-(Aminomethyl)phenyl)-N-(2-chlorophenyl)imidazo[1,2-a]pyridine-3-carboxamide] | 77% | – | 11% | 22% | – | 6% | 22% | – | 6% | 24% | – | 8% | – | remaining activity at 0.3 µM (EphA2): 0%; remaining activity at 0.3 µM (EphB4): 3%; remaining activity at 0.3 µM (EphB3): 4%; remaining activity at 0.3 µM (EphA4): 5%
5 | COc1ccc(-c2ccc3ncc(C(=O)Nc4ccccc4Cl)n3c2)cc1 [compound 102, N-(2-Chlorophenyl)-6-(4-methoxyphenyl)imidazo[1,2-a]pyridine-3-carboxamide] | 79.9% | 69.4% | 59.6% | 104% | 103% | 98% | 92.4% | 92.7% | 88.6% | 80.4% | 74.1% | 83.9% | – | –
6 | O=C(Nc1ccccc1Cl)c1cnc2ccc(-c3ccncc3)cn12 [compound 114, N-(2-Chlorophenyl)-6-(pyridin-4-yl)imidazo[1,2-a]pyridine-3-carboxamide] | 51% | – | 32% | 39% | – | 4% | 52% | – | 13% | 49% | – | 21% | – | remaining activity at 0.3 µM (EphA2): 14%; remaining activity at 0.3 µM (EphB4): 4%; remaining activity at 0.3 µM (EphB3): 5%; remaining activity at 0.3 µM (EphA4): 10%
7 | Cc1ccccc1-c1ccc2ncc(C(=O)Nc3ccccc3Cl)n2c1 [compound 106, N-(2-Chlorophenyl)-6-(2-methylphenyl)imidazo[1,2-a]pyridine-3-carboxamide] | 110% | 78.9% | 72.7% | 98.9% | 106% | 110% | 132% | 93.8% | 63.5% | 83.8% | 58.3% | 55.1% | 130 nM | IC50 (EphA2): 245 nM; IC50 (EphB4): 675 nM; IC50 (EphB3; [1]): 182 nM; IC50 (EphA4): 110 nM

Now from value to compound, other results behind:

Row | remaining activity at 0.01 µM (EphA2) | remaining activity at 0.03 µM (EphA2) | remaining activity at 0.1 µM (EphA2) | remaining activity at 0.01 µM (EphB4) | remaining activity at 0.03 µM (EphB4) | remaining activity at 0.1 µM (EphB4) | remaining activity at 0.01 µM (EphB3) | remaining activity at 0.03 µM (EphB3) | remaining activity at 0.1 µM (EphB3) | remaining activity at 0.01 µM (EphA4) | remaining activity at 0.03 µM (EphA4) | remaining activity at 0.1 µM (EphA4) | IC50 (EphB3; [2]) | SMILES | other results
8 | – | – | – | – | – | – | – | – | – | – | – | – | 84000 nM | O=C(Nc1cccc2c1CCO2)c1cnc2ccc(C3CCNCC3)cn12 [compound 124, N-(2,3-dihydrobenzofuran-4-yl)-6-(piperidin-4-yl)imidazo[1,2-a]pyridine-3-carboxamide] | –
9 | – | – | – | – | – | – | – | – | – | – | – | – | 6000 nM | O=C(Nc1cccc(F)c1Cl)c1cnc2ccc(C3CCNCC3)cn12 [compound 123, N-(2-chloro-3-fluorophenyl)-6-(piperidin-4-yl)imidazo[1,2-a]pyridine-3-carboxamide] | –
10 | – | – | – | – | – | – | – | – | – | – | – | – | 2900 nM | O=C(Nc1ncccc1Cl)c1cnc2ccc(C3CCNCC3)cn12 [compound 120, N-(3-chloropyridin-2-yl)-6-(piperidin-4-yl)imidazo[1,2-a]pyridine-3-carboxamide] | –
11 | – | – | – | – | – | – | – | – | – | – | – | – | 8100 nM | O=C(Nc1ccncc1Cl)c1cnc2ccc(C3CCNCC3)cn12 [compound 121, N-(3-chloropyridin-4-yl)-6-(piperidin-4-yl)imidazo[1,2-a]pyridine-3-carboxamide] | –
12 | – | – | – | – | – | – | – | – | – | – | – | – | 89 nM | CN1CCC(c2ccc3ncc(C(=O)Nc4ccccc4Cl)n3c2)CC1 [compound 122, N-(2-chlorophenyl)-6-(1-methylpiperidin-4-yl)imidazo[1,2-a]pyridine-3-carboxamide] | –
